Results: a melting point compilation (Tetko et al.; mined from patent text by program, amines drawn as free bases though some values may be those of a salt)

SMILES | melting point [°C]
CC(=O)NCc1ccc2ccn(C3CCN(CCc4ccc(Br)cc4)CC3)c2c1 | 140 to 141
CS(=O)(=O)Nc1nc2nc(NC3CCOCC3)ncc2cc1Oc1ccc(F)cc1F | 199 to 204
Cc1cc(F)ccc1-c1cscc1-c1ccc(S(C)(=O)=O)cc1 | 158 to 160
Oc1ccc2nc(-c3ccc(O)c(O)c3)oc2c1 | 282 to 284
CCCCc1oc2ccccc2c1C(=O)Nc1ccc2c(Br)c(OC(Cc3ccccc3)C(=O)O)ccc2c1 (centres undefined) | 191 to 195
COc1ccc(Cn2cnc3c(-c4ccco4)nc(S(C)(=O)=O)nc32)cc1 | 184 to 185
CCOC(=O)COc1cccc(/C=C/c2nc3ccccc3s2)c1 | 150 to 151
Cc1ccc(S(=O)(=O)n2cc(/C=C/C(=O)N(C)C)nc2C)cc1 | 162 to 163
CC(=O)NC[C@H]1CN(c2ccc(N3CC(N(C)CCF)C3)c(F)c2)C(=O)O1 | 126 to 127
CC(C)(C)c1cc(C(=O)c2ccsc2)cc2c1OCC2(C)C | 89 to 90
COC(=O)c1nc(-c2ccc(C(F)(F)F)cc2)nc(N)c1Cl | 204 to 205
COC1(c2cc(Sc3ccc(/C(C)=N/O)cc3)nc(N)n2)CCOCC1 | 237 to 240
O=C(Nc1ccc(C(=O)N2CCCCc3ccccc32)cc1)c1ccccc1OCCCCCCN1C(=O)c2ccccc2C1=O | 145 to 146
Cc1c(S(=O)c2cc(Cl)c(Cl)cc2Cl)cc(C(C)(C)C)c(O)c1C(=O)Nc1ccc([N+](=O)[O-])cc1C(F)(F)F (centres undefined) | 234 to 235
CC(C)(C)CCNC(=O)N(CCCl)N=O | 43 to 43.5
CC(C)(C)c1cc(I)c2c(c1)CNC1(O2)C2CC3CC(C2)CC1C3 (centres undefined) | 162 to 164
CCC(=O)/C=C/c1c([N+](=O)[O-])ccc2c1OC(COS(=O)(=O)c1ccc(C)cc1)CO2 (centres undefined) | 114
Cc1ccc(OC(=O)CCCC(=O)OOC(C)(C)C)cc1 | 50 to 55
CN1C2CCC(N3C(=O)c4ccccc4C3=O)C1CC2 (centres undefined) | 145 to 147
CCCc1nc2c(N)nc3cc(-c4ccccc4)ccc3c2n1CCCC(C)N(OC)C(=O)NC(C)C (centres undefined) | 101 to 103
COc1nc(C)nc(OC)c1[N+](=O)[O-] | 114 to 115
Nc1cccc(CN2C(=O)[C@H]3CCC[C@H]3Nc3ccccc32)c1 (relative stereo) | 176 to 178
c1ccc(COc2ccc(OCCN3CCN(c4ccccc4)CC3)cc2)cc1 | 116 to 119
COC(=C1C2CC3CC(C2)CC1C3)c1cc(OC)cc(OC(=O)C(C)(C)C)c1 | 159
COC(=O)C1(c2ccc([N+](=O)[O-])cc2)CO1 (centres undefined) | 78 to 82

SMILES | melting point [°C]
CCC(=O)c1ccc2cc(O)ccc2c1 | 158 to 159
COc1ccc(NC(=NC#N)N2CCn3c(c(C(N)=O)c(Cl)c3-c3ccccc3)C2)cc1 | 170
NS(=O)(=O)c1ccc(-c2cn(-c3nc(-c4ccc(F)cc4)cc(C(F)(F)F)n3)cn2)s1 | 244
O=C(O)CCc1cn(Cc2ccc(OCc3csc(-c4cnccn4)n3)cc2)cc1-c1ccccc1 | 137 to 138
CN(C)C(=O)c1nc2n(n1)-c1ccccc1N(c1ccccc1)C2 | 150 to 165
Cc1nc(/C=C/c2ccc3ccccc3n2)cc(-n2nc(C)nc2C)n1 | 153 to 155
CC(C)(C)OC(=O)C[C@@H]1C[C@@H](COc2ccc(-c3ccc(C(=N)NC(=O)OCc4ccccc4)cc3)cc2)NC1=O | 136 to 140
COC(=O)C(Oc1ccc(C2CCCCC2)cc1)c1ccc(Oc2ccc(Cl)cc2)cc1 (centres undefined) | 122 to 124
CC(C)N(Cc1ccc(Cl)c(Cl)c1)S(=O)(=O)c1cc2ccccc2s1 | 133 to 135
CCOc1c(O)nc(-c2ccc(Cl)c(OC)c2F)nc1C(=O)OC | 173 to 175
COC1=C(OC)C(=O)C(CCCCCCCCCCCCCO)=C(C)C1=O | 65 to 66
O=C(O)c1ccc(CN([C@@H](CO)c2ccccc2)S(=O)(=O)c2ccc(Cl)cc2)cc1 | 85 to 87
COc1ccc(C(=O)C(=O)NC(C)C)s1 | 72 to 73
O=C(Nc1ccc2nc(CN3CCN=C3c3ccccc3)ccc2c1)c1ccc(-c2ccc(F)cc2)cc1 | 209 to 210
CCCn1c(=O)c2c(NC)n[nH]c2n(Cc2ccccc2)c1=O | 307 to 310
CC(C)CCOc1ccc(C(=O)C(O)O)cc1 | 80 to 85
CCOC(=O)COc1c(F)cc(S(=O)(=O)CCNS(=O)(=O)c2ccc(Cl)cc2)cc1F | 166 to 167
Cc1cc(-n2ccnc2)ccc1N | 131 to 134
COc1ccc(Cl)cc1-c1c(Sc2ncccn2)c(=O)[nH]c2ccc(C(F)(F)F)cc12 | 302 to 303
CC(C)n1cc(-c2nc(C#N)c(N)nc2-c2ccccc2F)ccc1=O | 211
Cc1nc2cc(NC(=O)c3cc4cc(-c5ccccc5)ncc4n3Cc3cccc(F)c3)ccc2n1C | 288 to 290
CCN(CC)C(=O)C(C)Oc1cc(-c2ccccc2)cc2ccccc12 (centres undefined) | 109
Cc1cscc1-c1cccc2c1ccn2-c1ccnc(NC2CCC(C(=O)N3CCC(O)CC3)CC2)n1 (centres undefined) | 168 to 188
O=C(NCC1Cc2cc(Cl)c3c(c2O1)CCC3)OCc1ccccc1 (centres undefined) | 118 to 121
